Experimental data taken from patent US11090364B2, “Conjugates of a pharmaceutical agent and a moiety capable of binding to a glucose sensing protein” (SANOFI, priority 2016, dated 2021).

System: HepG2 cells
Assay: HepG2 assay: 14C 2-deoxy-D-glucose transport into HepG2 cells
Type: cell-based
Conditions: Homo sapiens, test compound 100 μM
Description: For measurement of ^14C 2-deoxy-D-glucose transport into HepG2 cells, cells were seeded in collagen treated 96-well plates (Cytostar-T Plates Perkin Elmer, 40.000 cells/200 μ/well) in medium complete (MEM W/GLUT-I, EARLES (Gibco #41090) /NEAA/PS/10% FCS) and grown for 48 hours. After starvation for 2 hours with MEM W/GLUT-I, EARLES (Gibco #41090)/NEAA/no serum 100 μl/well and washing twice with 200 μL KRB buffer, cells were stimulated in a dose dependent manner by adding 20 μL of test compound dilution 0-750 μM (7.5 times higher concentration than final) or 20 μL of 188 μM Cytochalasin B solution as negative control, to 80 μL KRB buffer and incubated for 30 minutes. After compound stimulation, the transport of ^14C 2-deoxy-D-glucose was started by adding of 50 μL ^14C 2-deoxy-D-glucose solution (250 μM 2-deoxy-D-glucose cold and 15 μM ^14C 2-deoxy-D-glucose 0.13 μCi/well) for 20 minutes. Transport was stopped by adding 50 μL/well 40 μM Cytochalasin B solution. Plates were measured in a 96-well Wallac Microbeta device. The cpm (counts per minute) values were used to determine the % inhibition values for the test compounds within each experiment, which then are averaged over the number of experiments performed.

Compound	inhibition at 100 µM
COC(=O)c1ccc(-c2cn([C@H]3C(O)O[C@H](CO)[C@@H](O)[C@@H]3O)nn2)cc1 (stereo partly drawn) [Example 58, Methyl 4-[1-[(3R,4R,5S,6R)-2,4,5-trihydroxy-6-(hydroxymethyl)tetrahydropyran-3-yl]triazol-4-yl]benzoate]	20%
O=[N+]([O-])c1ccc(NCc2cn([C@@H]3O[C@H](CO)[C@@H](O)[C@H](O)[C@H]3O)nn2)c2nonc12 [Example 88, (2R,3S,4S,5R,6R)-2-(Hydroxymethyl)-6-[4-[[(4-nitro-2,1,3-benzoxadiazol-7-yl)amino]methyl]triazol-1-yl]tetrahydropyran-3,4,5-triol]	31.4%
C=CCN1CCN(C(=O)[C@H]2OC(O)[C@H](O)[C@@H](O)[C@@H]2O)CC1 (stereo partly drawn) [Example 28, (4-Allylpiperazin-1-yl)-[(2S,3S,4S,5R)-3,4,5,6-tetrahydroxytetrahydropyran-2-yl]methanone]	9.95%
O=[N+]([O-])c1ccc(NCCCCCCc2cn([C@@H]3O[C@H](CO)[C@@H](O)[C@H](O)[C@H]3O)nn2)c2nonc12 [Example 92, (2R,3S,4S,5R,6R)-2-(Hydroxymethyl)-6-[4-[6-[(4-nitro-2,1,3-benzoxadiazol-7-yl)amino]hexyl]triazol-1-yl]tetrahydropyran-3,4,5-triol]	23.1%
COc1ccc(N2CCN(C(=O)[C@H]3OC(O)[C@H](O)[C@@H](O)[C@@H]3O)CC2)cc1 (stereo partly drawn) [Example 37, [4-(4-Methoxyphenyl)piperazin-1-yl]-[(2S,3S,4S,5R)-3,4,5,6-tetrahydroxytetrahydropyran-2-yl]methanone]	6.88%
CC(=O)O[C@@H]1O[C@H](C(=O)N2CCN(C)CC2)[C@@H](OC(C)=O)[C@H](OC(C)=O)[C@H]1OC(C)=O [Example 1, [(2S,3R,4S,5S,6S)-2,3,5-Triacetoxy-6-(4-methylpiperazine-1-carbonyl)tetrahydropyran-4-yl] acetate]	6.32%
C=CCN1CCN(C(=O)[C@H]2O[C@@H](OC(C)=O)[C@H](OC(C)=O)[C@@H](OC(C)=O)[C@@H]2OC(C)=O)CC1 [Example 8, [(2S,3R,4S,5S,6S)-2,3,5-Triacetoxy-6-(4-allylpiperazine-1-carbonyl)tetrahydropyran-4-yl] acetate]	7.67%
COc1ccccc1N1CCN(CC2=C[C@H](OC(C)=O)[C@@H](OC(C)=O)[C@H](OC(C)=O)O2)CC1 [Example 52, [(2S,3R,4S)-2,3-Diacetoxy-6-[[4-(2-methoxyphenyl)piperazin-1-yl]methyl]-3,4-dihydro-2H-pyran-4-yl] acetate]	14.6%
CC(=O)O[C@@H]1OC(CN2CCN(C/C=C/c3ccccc3)CC2)=C[C@H](OC(C)=O)[C@H]1OC(C)=O [Example 46, [(2S,3R,4S)-2,3-Diacetoxy-6-[[4-[(E)-cinnamyl]piperazin-1-yl]methyl]-3,4-dihydro-2H-pyran-4-yl] acetate]	8.76%
O=[N+]([O-])c1ccc(NCc2cn([C@H]3C(O)O[C@H](CO)[C@@H](O)[C@@H]3O)nn2)c2nonc12 (stereo partly drawn) [Example 63, (3R,4R,5S,6R)-6-(Hydroxymethyl)-3-[4-[[(4-nitro-2,1,3-benzoxadiazol-7-yl)amino]methyl]triazol-1-yl]tetrahydropyran-2,4,5-triol]	37.6%
CN(C)c1cccc2c(S(=O)(=O)NCc3cn([C@H]4C(O)O[C@H](CO)[C@@H](O)[C@@H]4O)nn3)cccc12 (stereo partly drawn) [Example 54, 5-(Dimethylamino)-N-[[1-[(3R,4R,5S,6R)-2,4,5-trihydroxy-6-(hydroxymethyl)tetrahydropyran-3-yl]triazol-4-yl]methyl]naphthalene-1-sulfonamide]	10.5%
O=C([C@H]1OC(O)[C@H](O)[C@@H](O)[C@@H]1O)N1CCN(Cc2ccc3c(c2)OCO3)CC1 (stereo partly drawn) [Example 40, [4-(1,3-Benzodioxol-5-ylmethyl)piperazin-1-yl]-[(2S,3S,4S,5R)-3,4,5,6-tetrahydroxytetrahydropyran-2-yl]methanone]	10.1%
CC(=O)O[C@@H]1OC(CN2CCN(c3ccccc3)CC2)=C[C@H](OC(C)=O)[C@H]1OC(C)=O [Example 45, [(2S,3R,4S)-2,3-Diacetoxy-6-[(4-phenylpiperazin-1-yl)methyl]-3,4-dihydro-2H-pyran-4-yl] acetate]	29.3%
CN(Cc1ccccc1)Cc1cn([C@H]2C(O)O[C@H](CO)[C@@H](O)[C@@H]2O)nn1 (stereo partly drawn) [Example 59, (3R,4R,5S,6R)-3-[4-[[Benzyl(methyl)amino]methyl]triazol-1-yl]-6-(hydroxymethyl)tetrahydropyran-2,4,5-triol]	7.56%
COc1ccccc1N1CCN(C(=O)[C@H]2OC(O)[C@H](O)[C@@H](O)[C@@H]2O)CC1 (stereo partly drawn) [Example 39, [4-(2-Methoxyphenyl)piperazin-1-yl]-[(2S,3S,4S,5R)-3,4,5,6-tetrahydroxytetrahydropyran-2-yl]methanone]	11%
CC(=O)O[C@@H]1O[C@H](C(=O)N2CCN(c3ccc(Cl)cc3)CC2)[C@@H](OC(C)=O)[C@H](OC(C)=O)[C@H]1OC(C)=O [Example 14, [(2S,3R,4S,5S,6S)-2,3,5-Triacetoxy-6-[4-(4-chlorophenyl)piperazine-1-carbonyl]tetrahydropyran-4-yl] acetate]	5.67%
CCN1CCN(C(=O)[C@H]2OC(O)[C@H](O)[C@@H](O)[C@@H]2O)CC1 (stereo partly drawn) [Example 22, (4-Ethylpiperazin-1-yl)-[(2S,3S,4S,5R)-3,4,5,6-tetrahydroxytetrahydropyran-2-yl]methanone]	11.4%
CCCCCc1cn([C@H]2C(O)O[C@H](CO)[C@@H](O)[C@@H]2O)nn1 (stereo partly drawn) [Example 65, (3R,4R,5S,6R)-6-(Hydroxymethyl)-3-(4-pentyltriazol-1-yl)tetrahydropyran-2,4,5-triol]	7.79%
COc1cccc(N2CCN(CC3=C[C@H](OC(C)=O)[C@@H](OC(C)=O)[C@H](OC(C)=O)O3)CC2)c1 [Example 51, [(2S,3R,4S)-2,3-Diacetoxy-6-[[4-(3-methoxyphenyl)piperazin-1-yl]methyl]-3,4-dihydro-2H-pyran-4-yl] acetate]	17.9%
CC(=O)O[C@@H]1OC(CN2CCN(c3ccc(Br)cc3)CC2)=C[C@H](OC(C)=O)[C@H]1OC(C)=O [Example 53, [(2S,3R,4S)-2,3-Diacetoxy-6-[[4-(4-bromophenyl)piperazin-1-yl]methyl]-3,4-dihydro-2H-pyran-4-yl] acetate]	23.9%
O=C([C@H]1OC(O)[C@H](O)[C@@H](O)[C@@H]1O)N1CCN(C2CCCCC2)CC1 (stereo partly drawn) [Example 29, (4-Cyclohexylpiperazin-1-yl)-[(2S,3S,4S,5R)-3,4,5,6-tetrahydroxytetrahydropyran-2-yl]methanone]	18.4%
COc1ccc2cc(-c3cn([C@H]4C(O)O[C@H](CO)[C@@H](O)[C@@H]4O)nn3)ccc2c1 (stereo partly drawn) [Example 60, (3R,4R,5S,6R)-6-(Hydroxymethyl)-3-[4-(6-methoxy-2-naphthyl)triazol-1-yl]tetrahydropyran-2,4,5-triol]	14.8%
CC(=O)O[C@@H]1O[C@H](C(=O)N2CCN(C3CCCCC3)CC2)[C@@H](OC(C)=O)[C@H](OC(C)=O)[C@H]1OC(C)=O [Example 9, [(2S,3R,4S,5S,6S)-2,3,5-Triacetoxy-6-(4-cyclohexylpiperazine-1-carbonyl)tetrahydropyran-4-yl] acetate]	5.11%
OC[C@H]1OC(O)[C@H](n2cc(-c3ccccc3)nn2)[C@@H](O)[C@@H]1O (stereo partly drawn) [Example 55, (3R,4R,5S,6R)-6-(Hydroxymethyl)-3-(4-phenyltriazol-1-yl)tetrahydropyran-2,4,5-triol]	12.4%
COc1ccccc1N1CCN(C(=O)[C@H]2O[C@@H](OC(C)=O)[C@H](OC(C)=O)[C@@H](OC(C)=O)[C@@H]2OC(C)=O)CC1 [Example 19, [(2S,3R,4S,5S,6S)-2,3,5-Triacetoxy-6-[4-(2-methoxyphenyl)piperazine-1-carbonyl]tetrahydropyran-4-yl] acetate]	6.89%
CC(=O)O[C@@H]1O[C@H](C(=O)N2CCN(C(C)(C)C)CC2)[C@@H](OC(C)=O)[C@H](OC(C)=O)[C@H]1OC(C)=O [Example 7, [(2S,3R,4S,5S,6S)-2,3,5-Triacetoxy-6-(4-tert-butylpiperazine-1-carbonyl)tetrahydropyran-4-yl] acetate]	6.99%
CCN1CCN(C(=O)[C@H]2O[C@@H](OC(C)=O)[C@H](OC(C)=O)[C@@H](OC(C)=O)[C@@H]2OC(C)=O)CC1 [Example 2, [(2S,3R,4S,5S,6S)-2,3,5-Triacetoxy-6-(4-ethylpiperazine-1-carbonyl)tetrahydropyran-4-yl] acetate]	6.5%
CC(=O)O[C@@H]1O[C@H](C(=O)N2CCN(c3ccccc3)CC2)[C@@H](OC(C)=O)[C@H](OC(C)=O)[C@H]1OC(C)=O [Example 12, [(2S,3R,4S,5S,6S)-2,3,5-Triacetoxy-6-(4-phenylpiperazine-1-carbonyl)tetrahydropyran-4-yl] acetate]	5.43%
O=C([C@H]1OC(O)[C@H](O)[C@@H](O)[C@@H]1O)N1CCN(c2ccc(Cl)cc2)CC1 (stereo partly drawn) [Example 34, [4-(4-Chlorophenyl)piperazin-1-yl]-[(2S,3S,4S,5R)-3,4,5,6-tetrahydroxytetrahydropyran-2-yl]methanone]	20.5%
